Test results: patent publication US12163169B2, “Inducible chimeric cytokine receptors” (Allogene Therapeutics, Inc., priority 2018, dated 2024)
Ends that are not written are not given here.

Tested on: STAT5
Assay: HEK293T Stat5 reporter assay of FKBP switches lacking JAK-binding motifs or cytotail tyrosines (Example 3B)
Assay type: cell-based
Details: 5 hours post-treatment, compared to positive control FKBP switch TpoR(478-582)/IL7R(316-459), FIG. 5B
Source text: To identify components essential for the inducible chimeric cytokine receptor to signal, we generated FKBP switches that lacked either the JAK-binding domains or tyrosine residues in the cytotail domain. Specifically, either one or both JAK-binding motifs from TpoR(478-582) were replaced with glycine linkers, or all or a single (i.e. Y449) tyrosine residue(s) in the IL7R(316-459) cytotail was mutated to phenylalanine. The term “switch” as used in the Example section refers to the inducible chimeric cytokine receptor. For example, an “FKBP switch” as used herein is an inducible chimeric cytokine receptor comprising FKBP as the dimerization domain.
A HEK293T cell reporter assay was used to test how each of these domains affected cytokine signaling. Briefly, 20,000 HEK293T cells were plated into each well of a poly-L-lysine-coated 96-well flat-bottom plate and allowed to adhere overnight. […] 24 hours after transfection, cells were either left untreated, or treated with the indicated concentrations of AP1903 (Apex Bio) diluted in serum-free media, and Stat reporter activity was determined 5 hours post-treatment using the Dual-Glo Luciferase Assay System (Promega). […]

## IL7R(424-459; Y456F): FKBP switch (Example 16) cytotail said to abrogate Stat5 activity, used as comparator (GILTLNPVAQGQPILTSLGSNQEEAYVTMSSFFQNQ; also: FKBP switch fusion; UniProt P16871 424-459, looked up, variant Y456F)
  AP1903-induced Stat5 reporter activity: abrogates Stat5 activity
